Structures can show the parent of a compound that is named as a salt. Numbered stars: 1 amine (or outer) side, 2 acyl side, 3 side chain; on linkers, the order of the positions; unused ones are H or OH. Bridge positions count the residues as written; N and C are the ends. Square brackets hold non-standard residues; d marks the D form. Peptide text beside a SMILES is read from it. I, II: the chains in the order shown. Actinocin(9to1) = Cc1c2oc3c(C)ccc(C(=O)[*:1])c3nc-2c(C(=O)[*:2])c(N)c1=O; NMeV = CN[C@H](C(=O)O)C(C)C; Sar = CNCC(=O)O
Key:
[1] = cited from earlier work; for terminal half-life: plasma; for peak concentration in plasma: usual clinical doses
[2] = tested on: HL-60 cells; assay: Differentiation by CD11b/CD14 flow cytometry; type: cell-based, human
Method: Immunophenotyping. The PE-conjugated anti-CD11b, FITC-conjugated anti-CD14 monoclonal antibody (mAb) (Becton Dickinson) and PE-conjugated anti-CD95 mAb (PharMingen) were used at a 1/10 dilution.
Enhancement in cellular differentiation using combinations of CDDO with ATRA were tested. […] Cell differentiation was analyzed by flow cytometry (CD14/CD11b staining). […] These experiments were repeated. […]
Finally, the inventors examined if CDDO-Me combined with ATRA would enhance differentiation. […] […] Next, combined treatment with CDDO-Me and RXR-specific ligand were tested for potentiation of anti-leukemic effects.

[3] = tested on: HL-60 cells; assay: CDDO-Me plus LG-100268 in HL-60 cells (Table 6); type: cell-based, human; design: unit not given here; settings: 24 hrs
Method: (§1) Finally, the inventors examined if CDDO-Me combined with ATRA would enhance differentiation. HL-60 cells were cultured with of 0.1 μM of CDDO-Me for 72 hrs, alone or in combination with 1 μM ATRA. […] At 48 hrs, 67.4% in CDDO-Me-treated cells and 63.5% in ATRA-treated cells were CD11b+ (compared with 40% in DMSO controls), while 85% of cells were positive when both compounds were given simultaneously. These studies were repeated 3 times and yielded essentially identical results. Next, combined treatment with CDDO-Me and RXR-specific ligand were tested for potentiation of anti-leukemic effects. RXR-specific ligand LG-100268 (Ligand Pharmaceuticals) used at 10, 100 nm and 1 μM enhanced killing of HL-60 cells in a dose-dependent manner (Table 6).

[4] = tested on: HL-60 cells; assay: Cell cycle (S+G2M) with RXR-specific ligand; type: cell-based, human; settings: 1 μM of LG-100268, combined treatment with CDDO-Me
Method: Cell kinetic and DNA fragmentation studies. The cell cycle kinetics was determined by staining cells with acridine orange for cellular DNA and RNA content followed by flow cytometeric analysis as described. Samples were measured in a FACScan flow cytometer (Becton Dickinson, San Jose, Calif.) using the 488-nm line of a […] argon laser and filter settings for green (530 nm) (DNA) and red (585 nm) (RNA) fluorescence. Ten thousand events were stored in list mode for analysis. The percentage of cells in the “sub G1 peak” defined the proportion of apoptotic cells in the tested populations. […] Cell-cycle kinetics was analyzed using ModFit software (Verity Software House, Inc., Topsham, Me.).
as §1, with “RXR-specific ligand LG-100268 (Ligand Pharmaceuticals) used at 10, 100 nm and 1 μM enhanced killing of HL-60 cells in a dose-dependent manner (Table 6).” left out

[5] = cited from earlier work
[6] = cited from earlier work; remark: listed apart in the source
[7] = tested on: HL-60 cells; assay: Differentiation by CD11b/CD14 flow cytometry; type: cell-based, human; settings: 7 days
[8] = tested on: HL-60 cells; assay: Viable cell count of leukemic cells in suspension culture (Trypan blue); type: cell-based, human; settings: Homo sapiens, HL-60, read-out: concentration required for 50% inhibition of HL-60 cells; PPARγ ligands compared to CDDO
Method: (§2) Suspension culture of leukemic cells. Leukemic cell lines were cultured at a density of 3.0×10^5 cells/mL, and AML mononuclear cells at 5×10^5 cells/mL in the presence or absence of indicated concentrations of CDDO-Me. Appropriate amounts of DMSO (final concentration<0.05%) was included as a control. For cytotoxicity studies, 1 μM ara-C was added to the cultures.
CDDO. […] The percentage of proliferating cells were analyzed by FCM.
CDDO-Me. […] Mechanism of growth inhibition was analyzed on cell cycle and apoptosis in HL-60 cells.

[9] = tested on: primary AML samples; assay: Annexin V staining of primary AML samples exposed to PPARγ ligands; type: cell-based, human; settings: 72 hrs; 15d-PGJ2 5 μM; BRL49653, L-805645, GW347845X 25 μM
Method: Annexin V staining. Cells were washed in phosphate-buffered saline (PBS) and resuspended in 100 μl of binding buffer containing Annexin V (Roche Diagnostic Corporation, Indianapolis, Ind.). Cells were analyzed by flow cytometry after the addition of propidium iodide (PI). Annexin V binds to those cells that express phosphatidylserine on the outer layer of the cell membrane, and PI stains the cellular DNA of those cells with a compromised cell membrane. This allows for live cells (unstained with either fluorochrome) to be discriminated from apoptotic cells (stained only with annexin V) and necrotic cells (stained with both annexin and PI).

[10] = tested on: primary AML cells; assay: Apoptosis in primary AML samples, subG1 DNA flow cytometry; type: cell-based, human; settings: ara-C 1 μM, alone or combined
Method: Subjects. Samples of bone marrow or peripheral blood were obtained for in vitro studies from patients with newly diagnosed or recurrent AML with high (>70%) blast count and from patients with myeloid transformation of chronic myeloid leukemia (CML). Informed consent was obtained following institutional guidelines. Mononuclear cells were separated by Ficoll-Hypaque (Sigma Chemical Co) density-gradient centrifugation.
as §2
Cell kinetic and DNA fragmentation studies. The cell cycle kinetics was determined by staining cells with acridine orange for cellular DNA and RNA content followed by flow cytometeric analysis as described. […] Ten thousand events were stored in list mode for analysis. The percentage of cells in the “sub G1 peak” defined the proportion of apoptotic cells in the tested populations. […] Cell-cycle kinetics was analyzed using ModFit software (Verity Software House, Inc., Topsham, Me.). […]

Compound: O=C(O)CCCc1ccc(N(CCCl)CCCl)cc1 [Chlorambucil, 4-[bis(2-chlorethyl)amino] benzenebutanoic acid]
- oral absorption ([1]; in vivo): rapidly and completely absorbed
- terminal half-life [1]: ~1.5 h

Compound: Cc1cc2c(cc1C1(c3ccc(C(=O)O)cn3)CC1)C(C)(C)CCC2(C)C [LG-100268]
- percentage of CD14 (+) live cells (FCM) ([2]; CDDO 0, ligand 1 nM): 16.6%
- percentage of CD14 (+) live cells (FCM) ([2]; CDDO 0, ligand 10 nM): 9.6%
- percentage of CD14 (+) live cells (FCM) ([2]; CDDO 0, ligand 100 nM): 9.4%
- Table 6 value: CDDO-Me-induced monocytic differentiation in HL-60 cells ([3]; CDDO-Me 0, LG-100268 10 nM): 6.8
- Table 6 value: CDDO-Me-induced monocytic differentiation in HL-60 cells ([3]; CDDO-Me 0, LG-100268 100 nM): 6.2
- Table 6 value: CDDO-Me-induced monocytic differentiation in HL-60 cells ([3]; CDDO-Me 0, LG-100268 1 μM): 6.3
- percentage of cells in S+G2M decreased by [4]: 50%

Compound: COc1cccc2c1C(=O)c1c(O)c3c(c(O)c1C2=O)C[C@@](O)(C(C)=O)C[C@@H]3O[C@H]1C[C@H](N)[C@H](O)[C@H](C)O1 [Daunorubicin, 5,12-Naphthacenedione, (8S-cis)-8-acetyl-10-[(3-amino-2,3,6-trideoxy-α-L-lyxo-hexanopyranosyl)oxy]-7,8,9,10-tetrahydro-6,8,11-trihydroxy-10-methoxy-, hydrochloride]
- oral absorption ([1]; in vivo): Oral absorption is poor
- elimination half-life ([1]; in vivo): about 19 hr
- fraction secreted/excreted into the bile ([1]; in vivo): ~40%

Compound: CC[C@]1(O)C[C@H]2CN(CCc3c([nH]c4ccccc34)[C@@](C(=O)OC)(c3cc4c(cc3OC)N(C=O)[C@H]3[C@@](O)(C(=O)OC)[C@H](OC(C)=O)[C@]5(CC)C=CCN6CC[C@]43[C@@H]65)C2)C1 [Vincristine]
- terminal half-life [1]: about 24 hours
- peak concentration in plasma [1]: approximately 0.4 mM

Compound: O=NN(CCCl)C(=O)NC1CCCCC1 [Lomustine, 1-(2-chloro-ethyl)-3-cyclohexyl-1 nitrosourea]
- radioactivity excreted as degradation products within 24 hours ([1]; oral radioactive lomustine 30 mg/m^2 to 100 mg/m^2): about half of the radioactivity

Compound: CO[C@@]12[C@H](COC(N)=O)C3=C(C(=O)C(C)=C(N)C3=O)N1C[C@@H]1N[C@@H]12 [Mitomycin]
- time required to reduce the serum concentration by 50% ([1]; after 30 mg bolus injection): 17 min
- fraction of dose excreted/recovered in the urine ([1]; in vivo): Approximately 10%

Compound: COc1cccc2c1C(=O)c1c(O)c3c(c(O)c1C2=O)C[C@@](O)([C@H](C)O)C[C@@H]3O[C@H]1C[C@H](N)[C@H](O)[C@H](C)O1 [daunorubicinol]
- elimination half-life ([1]; in vivo): about 27 hr

Compound: CC1=C(/C=C/C(C)=C/C=C/C(C)=C/C(=O)O)C(C)(C)CCC1 [ATRA, all-trans-retinoic acid, reference compound]
- CD11b+ cells ([2]; 48 hrs, CDDO-Me 0.1 μM, ATRA 1 μM, alone or simultaneously (DMSO controls 40%)): 63.5%
- percentage of CD14 (+) live cells (FCM) ([2]; CDDO 0, ligand 1 nM): 4%
- percentage of CD14 (+) live cells (FCM) ([2]; CDDO 0, ligand 10 nM): 5.2%
- percentage of CD14 (+) live cells (FCM) ([2]; CDDO 0, ligand 100 nM): 4.4%
- patients achieving complete remissions ([5]; acute promyelocytic leukemia (Warrell et al., 1991)): over 90%

Compound: CC[C@]1(O)C[C@@H]2CN(CCc3c([nH]c4ccccc34)[C@@](C(=O)OC)(c3cc4c(cc3OC)N(C)[C@H]3[C@@](O)(C(=O)OC)[C@H](OC(C)=O)[C@]5(CC)C=CCN6CC[C@]43[C@@H]65)C2)C1 [Vinblastine]
- fraction of dose excreted/recovered in the urine ([1]; in vivo): Approximately 15%
- fraction recovered in the feces after biliary excretion ([1]; in vivo): about 10%
- peak concentration in plasma [1]: approximately 0.4 mM

Compound: COc1cccc2c1C(=O)c1c(O)c3c(c(O)c1C2=O)C[C@@](O)(C(=O)CO)C[C@@H]3O[C@H]1C[C@H](N)[C@H](O)[C@H](C)O1 [Doxorubicin, 5,12-Naphthacenedione, (8s-cis)-10-[(3-amino-2,3,6-trideoxy-a-L-lyxo-hexopyranosyl)oxy]-7,8,9,10-tetrahydro-6,8,11-trihydroxy-8-(hydroxyacetyl)-1-methoxy-hydrochloride]
- oral absorption ([1]; in vivo): absorbed poorly
- elimination half-life ([1]; in vivo): about 30 hr
- fraction of dose excreted/recovered in the urine ([1]; in vivo): a few percent

Compound: TRAIL: member of tumor necrosis factor family of cytokines
- effect of chemotherapy in mice bearing human colon carcinoma tumors ([6]; 250-500 μg (Gliniak et al, 1999)): synergistically enhanced effect of chemotherapy
- survival of tumor-bearing mice ([6]; daily injections of 200-1000 μg (14 days) (Walczak et al., 1999)): significantly increased survival

Compound: Bleomycin
- fraction of dose excreted/recovered in the urine ([1]; in vivo): 60% to 70

Compound: Cc1c2oc3c(C)ccc(C(=O)N[C@@H]4C(=O)N[C@H](C(C)C)C(=O)N5CCC[C@H]5C(=O)N(C)CC(=O)N(C)[C@@H](C(C)C)C(=O)O[C@@H]4C)c3nc-2c(C(=O)N[C@@H]2C(=O)N[C@H](C(C)C)C(=O)N3CCC[C@H]3C(=O)N(C)CC(=O)N(C)[C@@H](C(C)C)C(=O)O[C@@H]2C)c(N)c1=O [Actinomycin D] (I: T[dV]P[Sar][NMeV] / II: T[dV]P[Sar][NMeV]; ester I:1-I:C, II:1-II:C; linker I:N-II:N via Actinocin(9to1))
- elimination half-life ([1]; in vivo): about 36 hr
- fraction of dose excreted/recovered in the urine ([1]; in vivo): 10%
- fraction secreted/excreted into the bile ([1]; in vivo): Half of the dose

Compound: N.N.[Cl][Pt][Cl] [Cisplatin]
- oral absorption ([1]; in vivo): not absorbed orally

Compound: CS(=O)(=O)OCCCCOS(C)(=O)=O [busulfan, 1,4-butanediol dimethanesulfonate]
- adults obtaining hematologic remission ([5]; previously untreated chronic myelogenous leukemia): Approximately 90%

Compound: N[C@@H](Cc1ccc(N(CCCl)CCCl)cc1)C(=O)O [Melphalan, 4-[bis(2-chloroethyl)amino]-L-phenylalanine]
- patients with favorable response ([5]; multiple myeloma, oral administration): about one third to one half

Compound: CN(CCOc1ccc(CC2SC(=O)NC2=O)cc1)c1ccccn1 (centres unmarked) [BRL49653, rosiglitazone]
- CD11b % ([7]; 10 μM (15d-PGJ2 column head prints M)): 38.9%
- CD11b % ([7]; 25 μM): 48.5%
- IC50 [8]: 25 to 50 µM
- annexin-V-positive cells [9]: 7%

Compound: Nc1ccn([C@@H]2O[C@H](CO)[C@@H](O)[C@@H]2O)c(=O)n1 [ara-C, reference compound]
- apoptosis in AML samples ([10]; CDDO 1 μM, n=23 (DMSO control 27.7±3.7%)): 41.6±4.6%
- cell killing in AML samples ([10]; CDDO-Me 1 μM, n=6 (DMSO control 24.9±7.4%)): 39.8±8.2%

From patent publication US7795305B2, “CDDO-compounds and combination therapies thereof” (Board of Regents, The University of Texas System, priority 2000, dated 2010)
